From patent US5129937A, “Pyridyloxypyrimidine derivatives, preparation process thereof, and herbicidal compositions containing the same as active ingredients” (Mitsui Toatsu Chemicals Incorporated, priority 1989, dated 1992)

Legend:
Format in all cases: in vivo
Corn (Zea maize) = experiment: Upland Soil Application Test, crop injury; conditions: 30 g ai/a; soil application before emergence, wettable powder; observed 30 days later
Protocol: (§1) Resin-made 1/2500-are pots were filled with the soil of an upland field. After they were fertilized, soybean, corn and cotton were seeded and 2-3 cm soil covering was applied. Seeds of redroot pigweed, morningglory (Ipomoea purpurea), common lambsquarters, barnyardgrass, green foxtail, large crabgrass, foxtail meadow and johnsongrass had been uniformly mixed with the soil. They were allowed to germinate in a green house. One day later (before emergence of weeds), a wettable powder prepared from a predetermined amount of each test compound in a similar manner to the method described in Formulation Example 1 was diluted with water and then sprayed evenly at an application rate equal to 10 l per are onto the surface of the soil by means of a pressure-operated ULV (ultra low volume) sprayer. Influence to the crops and weeds were observed 30 days later. The results are shown in Table 3, in which the degree of damages of each test plant and the degree of injury to each crop were determined by comparing the air-dried weights of the test plant and crop with those of the corresponding plant and crop in untreated pots and are shown in accordance with the following standard: […]

[1] = system: Cotton (Gossypium indicum); experiment: Upland Soil Application Test, crop injury; conditions: 30 g ai/a; soil application before emergence, wettable powder; observed 30 days later
Protocol: as §1

Soybean (Glycine max) = experiment: Upland Soil Application Test, crop injury; conditions: 30 g ai/a; soil application before emergence, wettable powder; observed 30 days later
Protocol: as §1

[2] = system: Barnyardgrass (Echinochloa crus-galli); experiment: Upland Foliar Application Test; conditions: 30 g ai/a; foliar application at 2-3 leaf stage, emulsion; observed on the 30th day
Description: (§2) Resin-made 1/10000-are pots were filled with the soil of an upland field. Redroot pigweed, morningglory (Ipomoea pupurea), common lambsquarters, foxtail meadow, johnsongrass, barnyardgrass, green foxtail, large crabgrass, soybean, corn and cotton were separately seeded and were allowed to germinate in a green house. When each plant grew to the stage of 2-3 leaves, an emulsion formulated from a predetermined amount of each test compound in a similar manner to the method described in Formulation Example 11 was diluted with water and then sprayed at a predetermined application rate by means of a pressure-operated ULV (ultra low volume) sprayer. The application rate was controlled at 5 l per are. Influence to the crops and weeds were observed on the 30th day after the spray of the herbicides. The results are shown in Table 4 in which the degree of damages of each test plant and the degree of injury to each crop are shown in a similar manner to Test 2.

Common lambsquarters = experiment: Upland Foliar Application Test; conditions: 30 g ai/a; foliar application at 2-3 leaf stage, emulsion; observed on the 30th day
Description: as §2

[3] = system: Crabgrass (Digitaria adsendens); experiment: Upland Foliar Application Test; conditions: 30 g ai/a; foliar application at 2-3 leaf stage, emulsion; observed on the 30th day
Description: as §2

[4] = system: Foxtail (Setaria viridis); experiment: Upland Foliar Application Test; conditions: 30 g ai/a; foliar application at 2-3 leaf stage, emulsion; observed on the 30th day
Description: as §2

Foxtail meadow = experiment: Upland Foliar Application Test; conditions: 30 g ai/a; foliar application at 2-3 leaf stage, emulsion; observed on the 30th day
Description: as §2

Johnsongrass = experiment: Upland Foliar Application Test; conditions: 30 g ai/a; foliar application at 2-3 leaf stage, emulsion; observed on the 30th day
Description: as §2

Redroot Pigweed = experiment: Upland Foliar Application Test; conditions: 30 g ai/a; foliar application at 2-3 leaf stage, emulsion; observed on the 30th day
Description: as §2

Rice (Oryza sativa) [5] = experiment: Submerged Soil Treatment Test (Pre-Emergence Treatment), crop injury; conditions: 30 g ai/a, granule, transplanted rice, observed 30 days later
Protocol: (§3) 1/5000-are Wagner pots were filled with soil. Seeds or tubers of barnyardgrass, bulrush and Sagittaria pygmaea were seeded or planted under submerged condition. Two pairs of rice seedlings (2-3 leaf stage), which had been reared in advance, were transplanted to each pot and were allowed to germinate in a green house. Each pair consisted of two rice seedlings. On day later (before emergence of weeds), each pot was treated with a granule which had been prepared by processing a predetermined amount of the test composition in accordance with a similar method to the method described in Formulation Example 9. The state of emergence of weeds and the state of injury of rice were observed 30 days later. In the table, the degrees of damages of the test plants and the degrees of injury of rice are shown in a similar manner to Example 2.

[6] = system: Arrowhead sp. (Sagittaria pygmaea); experiment: Submerged Soil Treatment Test (Growth Stage Treatment); conditions: 30 g ai/a, growth stage treatment (barnyardgrass two-leaf stage), granule, observed 30 days later
Protocol: as §3, with “allowed to grow in a” for “allowed to germinate in a”, “rice seedlings. When the barnyardgrass grew to the two-leaf stage, each pot” for “rice seedlings. On day later (before emergence of weeds), each pot”, “injury of the rice are” for “injury of rice are”

[7] = system: Barnyardgrass (Echinochloa crus-galli); experiment: as above; conditions: 30 g ai/a, growth stage treatment (barnyardgrass two-leaf stage), granule, observed 30 days later
Protocol: as §3, with “allowed to grow in a” for “allowed to germinate in a”, “rice seedlings. When the barnyardgrass grew to the two-leaf stage, each pot” for “rice seedlings. On day later (before emergence of weeds), each pot”, “injury of the rice are” for “injury of rice are”

[8] = system: Bulrush (Scirpus juncoides); experiment: as above; conditions: 30 g ai/a, growth stage treatment (barnyardgrass two-leaf stage), granule, observed 30 days later
Protocol: as §3, with “allowed to grow in a” for “allowed to germinate in a”, “rice seedlings. When the barnyardgrass grew to the two-leaf stage, each pot” for “rice seedlings. On day later (before emergence of weeds), each pot”, “injury of the rice are” for “injury of rice are”

Rice (Oryza sativa) [9] = experiment: Submerged Soil Treatment Test (Growth Stage Treatment), crop injury; conditions: 30 g ai/a, growth stage treatment (barnyardgrass two-leaf stage), granule, transplanted rice, observed 30 days later
Protocol: as §3, with “allowed to grow in a” for “allowed to germinate in a”, “rice seedlings. When the barnyardgrass grew to the two-leaf stage, each pot” for “rice seedlings. On day later (before emergence of weeds), each pot”, “injury of the rice are” for “injury of rice are”

| Compound | Crop injury Corn (Zea maize) (Corn (Zea maize)) | Crop injury Cotton (Gossypium indicum) [1] | Crop injury Soybean (Glycine max) (Soybean (Glycine max)) | Herbicidal effects Barnyardgrass (Echinochloa crus-galli) [2] | Herbicidal effects Common lambquarters (Common lambsquarters) | Herbicidal effects Crabgrass (Digitaria adsendens) [3] | Herbicidal effects Foxtail (Setaria viridis) [4] | Herbicidal effects Foxtail meadow (Foxtail meadow) | Herbicidal effects Johnsongrass (Johnsongrass) | Herbicidal effects Redroot Pigweed (Redroot Pigweed) | Crop injury Rice (Oryza sativa) (Rice (Oryza sativa) [5]) | Herbicidal effects Arrowhead sp. (Sagittaria pygmaea) [6] | Herbicidal effects Barnyardgrass (Echinochloa crus-galli) [7] | Herbicidal effects Bulrush (Scirpus juncoides) [8] | Crop injury Rice (Oryza sativa) (Rice (Oryza sativa) [9]) |
| --- | --- | --- | --- | --- | --- | --- | --- | --- | --- | --- | --- | --- | --- | --- | --- |
| COc1cc(OC)nc(Oc2cccnc2C2OCCO2)n1 [Compound No. 6] | 0 (91-100 (No damages)) | 0 (91-100 (No damages)) | 0 (91-100 (No damages)) | 4 (6-10 (Severe damages)) | 4 (6-10 (Severe damages)) | 4 (6-10 (Severe damages)) | 4 (6-10 (Severe damages)) | 5 (0-5 (Death)) | 5 (0-5 (Death)) | 5 (0-5 (Death)) | 0 (91-100 (No damages)) | 3 (11-40 (Medium damages)) | 5 (0-5 (Death)) | 5 (0-5 (Death)) | 0 (91-100 (No damages)) |
| COc1cc(OC)nc(Oc2cccnc2C2OCC(C)O2)n1 (stereo not drawn) [Compound No. 7] | 0 (91-100 (No damages)) | 0 (91-100 (No damages)) | 0 (91-100 (No damages)) | 5 (0-5 (Death)) | 4 (6-10 (Severe damages)) | 4 (6-10 (Severe damages)) | 5 (0-5 (Death)) | 5 (0-5 (Death)) | 5 (0-5 (Death)) | 5 (0-5 (Death)) | 0 (91-100 (No damages)) | 4 (6-10 (Severe damages)) | 5 (0-5 (Death)) | 4 (6-10 (Severe damages)) | 0 (91-100 (No damages)) |
| COc1cc(OC)nc(Oc2cccnc2C2OCCCO2)n1 [Compound No. 8] | 0 (91-100 (No damages)) | 0 (91-100 (No damages)) | 0 (91-100 (No damages)) | 4 (6-10 (Severe damages)) | 4 (6-10 (Severe damages)) | 3 (11-40 (Medium damages)) | 4 (6-10 (Severe damages)) | 4 (6-10 (Severe damages)) | 5 (0-5 (Death)) | 4 (6-10 (Severe damages)) | 0 (91-100 (No damages)) | 2 (41-70 (Small damages)) | 4 (6-10 (Severe damages)) | 2 (41-70 (Small damages)) | 0 (91-100 (No damages)) |
